# Read-outs that look alike come from different tables or passages of the source.
# Tests used:
# [1] = system: MOLM-13 FLT3-ITD AML cell line; test: Systemic survival xenograft study, MPC-0767 with 5′azacitidine; conditions: single agents: MPC-0767 75 mg/kg p.o.; 5′azacitidine 2 mg/kg QD×4 i.p.; vs vehicle
# Description: A systemic survival xenograft study was performed using the MOLM-13 FLT3-ITD harboring AML cell line.
# Before tumor cell inoculation, NOD/SCID mice were pre-treated for 2 days with a daily intraperitoneal injection of 100 mg/kg cyclophosphamide to facilitate engraftment of the human MOLM-13 tumor cells. After the injection of cyclophosphamide, the animals were allowed to recover for 24 hours prior to inoculation with human MOLM-13 tumor cells. Each mouse was then inoculated with 1×10^7 MOLM-13 cells in 100 μL PBS via intravenous tail vein injection. Mice were next randomized into 4 groups of 6 mice each. […] Viability and body weight loss were monitored daily.
# MV-4-11 cells (FLT3-ITD) = test: CellTiter-Glo cell viability (single agent and combination); assay type: cell-based; conditions: MV-4-11, 72 hours, average CI
# Description: (§1) Three cell lines which harbor FLT3-ITD were used for the drug combination studies (MV-4-11, MOLM-13, and MOLM-14).
# (§2) Cells were treated with the drugs (single agent or combination) for 72 hours. Drug combination activity was determined by first measuring cell viability with CellTiter-Glo®, followed by the calculation of the EC50 corresponding to single agent activity, using the R DRC package (R Core Team, 2017). The combination index (CI) values were computed using the Chou-Talalay method (Chou T, Cancer Research., 2010 70(2): 440-6.), based on the viability of each drug alone and in combination, across all concentrations tested. In brief, CI was defined as: […]
# (§3) Loss of function mutations of KDM6A are observed in FLT3-ITD AML (Garg et al., 2015 Blood 126 (22):2491-501). […] To therapeutically exploit this finding, we hypothesized that inhibiting EZH2, the histone H3K27 methyltransferase that functionally opposes KDM6A, would enhance sensitivity to MPC-0767. To test this hypothesis, a FLT3-ITD cell line (MV-4-11) was used and treated with either of the two clinical stage EZH2 inhibitors, EPZ-6438 and CPI-1205, at 8 different concentrations for 4 days. Following this time, cells were counted, reseeded and treated with 8 concentrations of EZH2 inhibitor alone, 8 concentrations of MPC-0767 alone, or the combination of the two (64 total combinations).
# MOLM-14 cells (FLT3-ITD) = test: as above; assay type: cell-based; conditions: for combination index (CI) of AML drug in combination with MPC-0767: MOLM-14, 72 hours, average CI (* n=1); for IC50: Homo sapiens, MOLM-14, 72 h, 72 hours, read-out: EC50 (cell viability)
# Description: HS-5 is a human marrow stromal cell line that secretes various growth factors sufficient to support hematopoietic progenitor growth (Roecklein et al., Blood, 1995) which thus mimics stromal conditions.
# as §1, §2, §3
# [2] = cited from earlier work
# MOLM-13 cells (FLT3-ITD) = test: CellTiter-Glo cell viability (combination); assay type: cell-based, human; conditions: MOLM-13, 72 hours, average CI
# Description: as §1, §2
# [3] = system: MOLM-13-R-PKC412 (midostaurin-resistant) cells; test: CellTiter-Glo cell viability; assay type: cell-based, human
# Text: (§4) In the clinic, tyrosine kinase inhibitors that target FLT3 initially show positive responses, but patients inevitably relapse due to the development of drug-resistance through various mechanisms, as discussed above.
# [4] = system: BaF3 cells harboring FLT3-ITD; test: CellTiter-Glo cell viability; assay type: cell-based, murine; conditions: Mus musculus, 72 hours
# Description: After this time cell viability was determined using CTG and EC50 values determined.
# (§5) EC50 values were calculated using equation 1 (as described above).
# BaF3 cells require the supplementation of IL-3 to activate the IL-3 receptor for growth. However, in BaF3 cells transfected with FLT3-ITD, cells no longer require IL3 as survival is solely driven by oncogenic FLT3 signaling.
# [5] = system: BaF3 cells harboring FLT3-ITD F691L; test: CellTiter-Glo cell viability; assay type: cell-based, murine
# Description: as §5
# MOLM-13-LUC cells = test: CellTiter-Glo cell viability; assay type: cell-based; conditions: Homo sapiens, 72 hours
# Text: as §4
# [6] = system: phospho-ERK (pERK) in MOLM-13 cells; test: Phospho-ERK level; assay type: cell-based, human; conditions: MPC-0767 800 nM, ATO 625 nM or combination, 24 hours
# Text: (§6) We next explored whether the synergistic activity of MPC-0767 and ATO was due to a more complete abrogation of FLT3-ITD oncogenic signaling. […] After this time cells were harvested for the assessment of cell surface FLT3 expression by flow cytometry. To additionally measure the effects of abrogating FLT3, we assessed phospho-ERK (pERK) and phospho-S6 (pS6), as these are two known downstream effectors.
# [7] = system: cell surface FLT3 in MOLM-13 cells; test: Cell surface FLT3 by flow cytometry; assay type: cell-based, human; conditions: MOLM-13; MPC-0767 800 nM, ATO 625 nM or combination; 24 hours
# Description: (§7) To determine whether MPC-0767 can promote the degradation of FLT3-ITD and abolish downstream signaling, MV-4-11 and MOLM-13 cells were treated with vehicle or MPC-0767 (1 μM) for 24 hours. Cells were harvested for flow cytometry to assess cell surface FLT3 protein abundance. In addition, the measurement of a key phosphorylation site of S6 (phospho-S6) was used as a marker for oncogenic FLT3-ITD signaling (Zimmerman et al., Blood. 2013 122(22): 3607-3615). Indeed, in both MV-4-11 and MOLM-13 cells treated with MPC-0767 there was a >65% reduction in cell surface FLT3 (FIGS. 10A and 10B, respectively) and >70% reduction in phospho-S6 (FIGS. 10C and 10D, respectively).
# as §6
# [8] = system: phospho-S6 in MOLM-13 cells; test: Phospho-S6 by flow cytometry; assay type: cell-based, human; conditions: MOLM-13; MPC-0767 800 nM, ATO 625 nM or combination; 24 hours
# Description: as §7, §6
# [9] = system: PD-1+ Jurkat reporter cells with THP-1 AML cells; test: Jurkat NFAT-luciferase reporter T cell activation with THP-1 cells; assay type: cell-based; conditions: THP-1 treated 24 hr with IFNγ 50 ng/ml; PD-L1 blocking antibody added
# Text: The addition of antibodies that block the PD-1/PD-L1 pathway stimulate an increased T cell response in vitro, in pre-clinical animal models, and in cancer patients. This can lead to tumor regressions or tumor clearance in patients. To examine MPC-0767 effects on PD-L1 and T cell activation, we used a model system in which PD-1+ Jurkat T cells express luciferase under the control of the NFAT promoter (Promega, hereafter referred to Jurkat reporter cells). When T cells are stimulated through the T cell receptor (TCR), activation of the NFAT pathway drives expression of luciferase.
# We next determined whether MPC-0767 reduction of PD-L1 could increase T cell stimulation similar to anti-PD-L1 blocking antibodies. THP-1 cells were treated overnight with IFNγ in the presence or absence of MPC-0767 (1 μM or 2 uM). THP-1 cells were washed and a portion saved for flow cytometry analysis of PD-L1 expression. The remaining cells were incubated with Jurkat reporter cells and anti-CD3 (10 ng/ml) for 6 hours.
# [10] = MOLM-14, stromal media (HS-5 conditioned)
compound,measurement,setting,value
"Nc1ncn([C@@H]2O[C@H](CO)[C@@H](O)[C@H]2O)c(=O)n1 [5′azacitidine, reference compound]",increase in median survival,[1],8 days
"Nc1ccn([C@@H]2O[C@H](CO)[C@@H](O)[C@@H]2O)c(=O)n1 [Cytarabine, cytarabine]",combination index (CI) of AML drug in combination with MPC-0767,MV-4-11 cells (FLT3-ITD),CI = 0.8
same,combination index (CI) of AML drug in combination with MPC-0767,MOLM-14 cells (FLT3-ITD),CI = 0.9*
"C[C@H](O)C(=O)N1CCC(CCn2c(Sc3cc4c(cc3Br)OCO4)nc3c(N)ncnc32)CC1 [MPC-3100, (2S)-1-[4-(2-{6-Amino-8-[(6-bromo-1,3-benzodioxol-5-yl)sulfanyl]-9H-purin-9-yl}ethyl)piperidin-1-yl]-2-hydroxypropan-1-one, reference compound]",aqueous solubility,[2],poor solubility
"CNC(=O)c1cc(Oc2ccc(NC(=O)Nc3ccc(Cl)c(C(F)(F)F)c3)cc2)ccn1 [Sorafenib, sorafenib]",combination index (CI) of AML drug in combination with MPC-0767,MV-4-11 cells (FLT3-ITD),CI = 0.8
"CC1(C)CCC(CN2CCN(c3ccc(C(=O)NS(=O)(=O)c4ccc(NCC5CCOCC5)c([N+](=O)[O-])c4)c(Oc4cnc5[nH]ccc5c4)c3)CC2)=C(c2ccc(Cl)cc2)C1 [Venetoclax, venetoclax]",combination index (CI) of AML drug in combination with MPC-0767,MV-4-11 cells (FLT3-ITD),CI = 0.7
same,combination index (CI) of AML drug in combination with MPC-0767,MV-4-11 cells (FLT3-ITD); listed as venetoclax,0.7
same,combination index (CI) of AML drug in combination with MPC-0767,MOLM-14 cells (FLT3-ITD),CI = 0.6
same,combination index (CI) of AML drug in combination with MPC-0767,MOLM-13 cells (FLT3-ITD),CI = 0.3
same,combination index (CI) of AML drug in combination with MPC-0767,MOLM-13 cells (FLT3-ITD); listed as venetoclax,0.3
CC1(COc2ccc3c(c2)ncn3-c2ccc3cccc(N4CCC(N)CC4)c3n2)COC1 [crenolanib],combination index (CI) of AML drug in combination with MPC-0767,MV-4-11 cells (FLT3-ITD),CI = 0.7
same,IC50,"MOLM-14 cells (FLT3-ITD); MOLM-14, non-stromal media",3 nM
same,IC50,MOLM-14 cells (FLT3-ITD); [10],> 100 nM
same,EC50,"[3]; Homo sapiens, MOLM-13-R-PKC412, 72 hours",25 nM
same,"fold difference in EC50, midostaurin-resistant vs control cells",[3]; MOLM-13-R-PKC412 vs MOLM-13-LUC,approximately 3 fold
same,EC50,[4],4 nM
same,combination index (CI) of AML drug in combination with MPC-0767,MOLM-13 cells (FLT3-ITD),CI = 0.9
same,"fold resistance, FLT3-ITD-F691L vs FLT3-ITD","[5]; BaF3, 72 hours",approximately 23 fold
same,EC50,"[5]; Mus musculus, BaF3 FLT3-ITD-F691L, 72 hours",90 nM
same,EC50,MOLM-13-LUC cells,9 nM
CCc1nc(C(N)=O)c(Nc2ccc(N3CCC(N4CCN(C)CC4)CC3)c(OC)c2)nc1NC1CCOCC1 [gilteritinib],IC50,"MOLM-14 cells (FLT3-ITD); MOLM-14, non-stromal media",6 nM
same,IC50,MOLM-14 cells (FLT3-ITD); [10],> 100 nM
same,combination index (CI) of AML drug in combination with MPC-0767,MOLM-13 cells (FLT3-ITD),CI = 0.9
"arsenic trioxide [ATO, reference compound]",pERK level,[6],mildly reduced
same,FLT3 level (cell surface),[7],reduced
same,pS6 level,[8],reduced
atezolizulmab: PD-L1 blocking antibody,T cell activation (luciferase),[9],restores T cell activation to untreated levels

# — patent US20200253979A1, “THERAPEUTIC METHODS RELATING TO HSP90 INHIBITORS” (AI Therapeutics, Inc., priority 2017, published 2020)
